The test system of assay [1] is gray mold (Botrytis cinerea). In words: Tomato gray mold control test (preventive effects). It is filed as in vivo. The note with it: potted tomato (giant Fukuju variety), spraying liquid 300 ppm before spore inoculation, investigated 2 days after inoculation, levels 0 to 3. As for the experimental part:
Bulk drug was dissolved in a mixed solution of dimethylsulfoxide and methanol (volume ratio: 7/3), and spraying liquids containing 300 ppm of compounds of the present invention were uniformly sprayed onto potted test plants (tomato: giant Fukuju variety) in the second to third leaf stage. […], a suspension of pathogen spores were inoculated by spraying onto the pots in an inoculation room at a room temperature of 20 to 23° C. to promote the onset of disease. The degree of disease onset was investigated 2 days after inoculation. The test was carried out in duplicate.
Furthermore, the degree of disease onset was evaluated to one of four levels from 0 to 3 according to the criteria below by macroscopically observing the degree of disease onset of the test plants.
1: Degree of disease onset less than 40% of the untreated area
2: Degree of disease onset 40% to less than 80% of the untreated area
3: Degree of disease onset 80% or more

The test system of assay [2] is rice blast (Pyricularia oryzae). It is filed as in vivo. The note with it: potted rice (variety Karakaze), spraying liquid 300 ppm after spore inoculation, observed 7 days after inoculation, levels 0 to 3.

Consider “3-(5-fluoro-3,3-dimethyl-3,4-dihydroisoquinolin-1-yl)quinoline salicylate [Example 108]”, for which the “degree of disease onset” value in assay [1] and in assay [2] was 0 each time.
Turning to `CC1(C)Cc2c(F)cccc2C(c2cnc3ccccc3c2)=N1` [Example 2, 3-(5-fluoro-3,3-dimethyl-3,4-dihydroisoquinolin-1-yl)quinoline], the “degree of disease onset” value in assay [1] and in assay [2] was 0 in each case.
Regarding `Cc1cccc2cc(C3=NC(C)(C)Cc4c(F)cccc43)cnc12` [Example 14, 3-(5-fluoro-3,3-dimethyl-3,4-dihydroisoquinolin-1-yl)-8-methylquinoline], the “degree of disease onset” value in assay [1] and in assay [2] was 0 each time.
For `CC1(C)Cc2c(Cl)cccc2C(c2cnc3ccccc3c2)=N1` [Example 18, 3-(5-chloro-3,3-dimethyl-3,4-dihydroisoquinolin-1-yl)quinoline], the “degree of disease onset” value in assay [1] and in assay [2] was 0 in each case.
For `CC1(C)Cc2ccc(Cl)cc2C(c2cnc3ccccc3c2)=N1` [Example 21, 3-(7-chloro-3,3-dimethyl-3,4-dihydroisoquinolin-1-yl)quinoline], the “degree of disease onset” value in assay [1] and in assay [2] was 0 throughout.
Consider `CC1(C)Cc2c(Br)cccc2C(c2cnc3ccccc3c2)=N1` [Example 22, 3-(5-bromo-3,3-dimethyl-3,4-dihydroisoquinolin-1-yl)quinoline], for which the “degree of disease onset” value in assay [1] and in assay [2] was 0 in each case.
Turning to `C#Cc1cccc2c1CC(C)(C)N=C2c1cnc2ccccc2c1` [Example 30, 3-(5-ethynyl-3,3-dimethyl-3,4-dihydroisoquinolin-1-yl)quinoline], the “degree of disease onset” value in assay [1] and in assay [2] was 0 throughout.
As to `CC1(C)Cc2c(C#N)cccc2C(c2cnc3ccccc3c2)=N1` [Example 51, 3-(5-cyano-3,3-dimethyl-3,4-dihydroisoquinolin-1-yl)quinoline], the “degree of disease onset” value in assay [1] and in assay [2] was 0 in each case.
Regarding `CC1(C)Cc2c(ccc(F)c2F)C(c2cnc3ccccc3c2)=N1` [Example 52, 3-(5,6-difluoro-3,3-dimethyl-3,4-dihydroisoquinolin-1-yl)quinoline], the “degree of disease onset” value in assay [1] and in assay [2] was 0 throughout.
Take `CCC1(C)Cc2c(F)cccc2C(c2cnc3ccccc3c2)=N1` (stereo not drawn) [Example 56, 3-(3-ethyl-5-fluoro-3-methyl-3,4-dihydroisoquinolin-1-yl)quinoline]: the “degree of disease onset” value in assay [1] and in assay [2] was 0 in each case.
On to `CCCC1(C)Cc2c(F)cccc2C(c2cnc3ccccc3c2)=N1` (stereo not drawn) [Example 58, 3-(5-fluoro-3-methyl-3-propyl-3,4-dihydroisoquinolin-1-yl)quinoline], for which the “degree of disease onset” value in assay [1] and in assay [2] was 0 each time.
For `CC1(CCl)Cc2ccccc2C(c2cnc3ccccc3c2)=N1` (stereo not drawn) [Example 66, 3-(3-chloromethyl-3-methyl-3,4-dihydroisoquinolin-1-yl)quinoline], the “degree of disease onset” value in assay [1] and in assay [2] was 0 throughout.
On to `CC1(C(F)(F)F)Cc2ccccc2C(c2cnc3ccccc3c2)=N1` (stereo not drawn) [Example 68, 3-(3-trifluoromethyl-3-methyl-3,4-dihydroisoquinolin-1-yl)quinoline], for which the “degree of disease onset” value in assay [1] and in assay [2] was 0 in each case.
Regarding `CC1(CC(F)(F)F)Cc2ccccc2C(c2cnc3ccccc3c2)=N1` (stereo not drawn) [Example 69, 3-(3-trifluoroethyl-3-methyl-3,4-dihydroisoquinolin-1-yl)quinoline], the “degree of disease onset” value in assay [1] and in assay [2] was 0 throughout.
Turning to `CC1(c2ccccc2)Cc2ccccc2C(c2cnc3ccccc3c2)=N1` (stereo not drawn) [Example 71, 3-(3-methyl-3-phenyl-3,4-dihydroisoquinolin-1-yl)quinoline], the “degree of disease onset” value in assay [1] and in assay [2] was 0 throughout.
In the case of `CC1(c2ccc(F)cc2)Cc2ccccc2C(c2cnc3ccccc3c2)=N1` (stereo not drawn) [Example 72, 3-[3-(4-fluorophenyl)-3-methyl-3,4-dihydroisoquinolin-1-yl]quinoline], the “degree of disease onset” value in assay [1] and in assay [2] was 0 throughout.
`CC1(c2ccc(Cl)cc2)Cc2ccccc2C(c2cnc3ccccc3c2)=N1` (stereo not drawn) [Example 73, 3-[3-(4-chlorophenyl)-3-methyl-3,4-dihydroisoquinolin-1-yl]quinoline]: the “degree of disease onset” value in assay [1] and in assay [2] was 0 each time.
For `Fc1ccc(C2(CCl)Cc3ccccc3C(c3cnc4ccccc4c3)=N2)cc1` (stereo not drawn) [Example 75, 3-[3-chloromethyl-3-(4-fluorophenyl)-3,4-dihydroisoquinolin-1-yl]quinoline], the “degree of disease onset” value in assay [1] and in assay [2] was 0 in each case.
For `CC1(Cc2ccccc2)Cc2ccccc2C(c2cnc3ccccc3c2)=N1` (stereo not drawn) [Example 79, 3-(3-Benzyl-3-methyl-3,4-dihydroisoquinolin-1-yl)quinoline], the “degree of disease onset” value in assay [1] and in assay [2] was 0 each time.
For the molecule `CC1(C)Cc2c(F)cccc2C(c2cnc3ccccc3c2)=N1.Cl` [Example 103, 3-(5-fluoro-3,3-dimethyl-3,4-dihydroisoquinolin-1-yl)quinoline hydrochloride], the “degree of disease onset” value in assay [1] and in assay [2] was 0 in each case.
As to `CC1(C)Cc2c(F)cccc2C(c2cnc3ccccc3c2)=N1.CS(=O)(=O)O` [Example 107, 3-(5-fluoro-3,3-dimethyl-3,4-dihydroisoquinolin-1-yl)quinoline methanesulfonate], the “degree of disease onset” value in assay [1] and in assay [2] was 0 in each case.
On to `CC1c2c(Cl)cccc2C(c2cnc3ccccc3c2)=NC1(C)C` (stereo not drawn) [Example 121, 3-(5-chloro-3,3,4-trimethyl-3,4-dihydroisoquinolin-1-yl)quinoline], for which the “degree of disease onset” value in assay [1] is listed as 0.
On to `CC1(C)N=C(c2cnc3ccccc3c2)c2cccc(Cl)c2C1(C)C` [Example 123, 3-(5-chloro-3,3,4,4-tetramethyl-3,4-dihydroisoquinolin-1-yl)quinoline], for which the “degree of disease onset” value in assay [1] came out at 0.
`CC1(C)N=C(c2cnc3ccccc3c2)c2ccc(Cl)cc2C1(C)C` [Example 154, 3-(6-chloro-3,3,4,4-tetramethyl-3,4-dihydroisoquinolin-1-yl)quinoline]: the “degree of disease onset” value in assay [1] is reported as 0.
For the molecule `CC1(C)N=C(c2cnc3ccccc3c2)c2cccc(F)c2C1(C)C.CS(=O)(=O)O` [Example 159, 3-(5-fluoro-3,3,4,4-tetramethyl-3,4-dihydroisoquinolin-1-yl)quinoline methanesulfonate], the “degree of disease onset” value in assay [1] stood at 0.
`C=C1c2c(F)cccc2C(c2cnc3ccccc3c2)=NC1(C)C` [Example 175, 3-(5-fluoro-3,3-dimethyl-4-methylene-3,4-dihydroisoquinolin-1-yl)quinoline]: the “degree of disease onset” value in assay [1] is 0.
On to `CN1C(c2cnc3ccccc3c2)c2cccc(F)c2C(C)(C)C1(C)C` (stereo not drawn) [Example 191, 3-(5-fluoro-2,3,3,4,4-pentamethyl-1,2,3,4-tetrahydroisoquinoline-1-yl)quinoline], for which the “degree of disease onset” value in assay [1] is on record as 0.

These data come from patent US7632783B2 (priority 2004, dated 2009).
